Our source for the MIC and MBC values is ChEMBL document CHEMBL2311326, “Synthesis and evaluation of novel sulfenamides as novel anti Methicillin-resistant Staphylococcus aureus agents” (2013).

The structures appear in SMILES notation. Values after ≈ are worked out from the molar mass of the structure shown.

Common to all, as to format: functional
Assay [1] deals with Pseudomonas aeruginosa. Nature of the assay: Antimicrobial activity against Pseudomonas aeruginosa PAO1.
Assay [2] concerns Staphylococcus aureus. Description: Antimicrobial activity against methicillin-resistant Staphylococcus aureus.
The test system of assay [3] is Bacillus subtilis. Description: Antimicrobial activity against Bacillus subtilis ATCC 6633.
In assay [4] the test system is Staphylococcus aureus. Nature of the assay: Antimicrobial activity against methicillin-resistant Staphylococcus aureus isolate 309-7.
For assay [5], the system named is Staphylococcus aureus. Nature of the assay: Antimicrobial activity against Staphylococcus aureus ATCC 6538.
The test system of assay [6] is Staphylococcus aureus. Description: Antimicrobial activity against methicillin-resistant Staphylococcus aureus isolate 309-8.
Assay [7] relates to Staphylococcus aureus. Nature of the assay: Antimicrobial activity against methicillin-resistant Staphylococcus aureus isolate 309-4.
Assay [8] has as its system Staphylococcus aureus. Nature of the assay: Antimicrobial activity against methicillin-resistant Staphylococcus aureus isolate Chaoyang.
Assay [9] deals with Staphylococcus aureus. Description: Antimicrobial activity against methicillin-sensitive Staphylococcus aureus isolate 309-1.
In assay [10] the test system is Staphylococcus aureus. Nature of the assay: Antimicrobial activity against methicillin-resistant Staphylococcus aureus isolate 6-42.

Turning to `Cc1ccc(SN[C@@H](Cc2c[nH]c3ccccc23)C(=O)OC(C)C)cc1`, the MIC – broadly, the least concentration at which growth counts as inhibited – in assay [1] is above 100 µg/mL; in assay [2], above 100 µg/mL; in assay [3] it was 25 µg/mL (≈ 67.8 µM).

In the case of `COC(=O)CC[C@H](NSc1ccccc1[N+](=O)[O-])C(=O)OC`, the results for the minimum inhibitory concentration (MIC) in [1], in assay [2] and in assay [3] were above 100 µg/mL, 12.5 µg/mL (≈ 38.1 µM) and 25 µg/mL (≈ 76.1 µM), respectively.

`CCOC(=O)[C@H](Cc1c[nH]c2ccccc12)NSc1ccc(C)cc1`: the minimum inhibitory concentration (MIC) in assay [1] was above 100 µg/mL; in assay [2], above 100 µg/mL; in assay [3], 25 µg/mL (≈ 70.5 µM).

Take `CCOC(=O)[C@H](Cc1c[nH]c2ccccc12)NSc1ccc([N+](=O)[O-])cc1[N+](=O)[O-]`: the figures for the MIC in [1], in assay [2] and in assay [3] were above 100 µg/mL, above 100 µg/mL and 25 µg/mL (≈ 58.1 µM), respectively.

Turning to `O=C1C(=O)N(Sc2ccccc2[N+](=O)[O-])c2ccccc21`, the MIC in [1] is above 100 µg/mL; in assay [2], 25 µg/mL (≈ 83.3 µM); in assay [3] it was above 100 µg/mL.

`CCOC(=O)CC[C@H](NSc1ccc([N+](=O)[O-])cc1[N+](=O)[O-])C(=O)OCC`: the MIC was above 100 µg/mL in assay [1], above 100 µg/mL in assay [2] and 50 µg/mL (≈ 125 µM) in assay [3].

Turning to `COC(=O)[C@H](Cc1c[nH]c2ccccc12)NSc1ccc([N+](=O)[O-])cc1[N+](=O)[O-]`, the MIC was above 100 µg/mL in assay [1], above 100 µg/mL in assay [2] and 25 µg/mL (≈ 60 µM) in assay [3].

With `COC(=O)[C@H](Cc1c[nH]c2ccccc12)NSc1ccccc1`, the results for the minimum inhibitory concentration (MIC) in assay [1], in assay [2] and in [3] were above 100 µg/mL, 50 µg/mL (≈ 153 µM) and 25 µg/mL (≈ 76.6 µM), respectively.

Consider `CCOC(=O)[C@H](Cc1c[nH]c2ccccc12)NSc1ccccc1`, for which the MIC in assay [1] was above 100 µg/mL; in assay [2] it was 25 µg/mL (≈ 73.4 µM); in [3], 25 µg/mL (≈ 73.4 µM).

Consider `COC(=O)c1ccccc1SN1C(=O)C(=O)c2ccccc21`, for which the minimal inhibitory concentration (MIC) in [1] is above 100 µg/mL; in [2], 50 µg/mL (≈ 160 µM); in assay [3], above 100 µg/mL.

Take `CCOC(=O)c1ccccc1SN1C(=O)C(=O)c2cc(Br)cc(Br)c21`: the results for the MIC in [1], in [2] and in assay [3] were above 100 µg/mL, 25 µg/mL (≈ 51.5 µM) and above 100 µg/mL, respectively.

Consider `Cc1ccc(SN2C(=O)C(=O)c3ccccc32)cc1`, for which the minimal inhibitory concentration (MIC) in [1], in assay [2] and in [3] was above 100 µg/mL throughout.

Turning to `CCOC(=O)c1ccccc1SN1C(=O)C(=O)c2cccc(Br)c21`, the MIC in assay [1], in assay [2] and in assay [3] was above 100 µg/mL each time.

Consider `CC(C)OC(=O)CC[C@H](NSc1ccc([N+](=O)[O-])cc1[N+](=O)[O-])C(=O)OC(C)C`, for which the MIC in [1] was above 100 µg/mL; in assay [2], above 100 µg/mL; in [3], 25 µg/mL (≈ 58.2 µM).

With `COC(=O)CC[C@H](NSc1ccc([N+](=O)[O-])cc1[N+](=O)[O-])C(=O)OC`, the figures for the MIC in assay [1], in [2] and in [3] were above 100 µg/mL, above 100 µg/mL and 50 µg/mL (≈ 134 µM), respectively.

`CCOC(=O)CC[C@H](NSc1ccccc1[N+](=O)[O-])C(=O)OCC`: the minimal inhibitory concentration (MIC) in [1] is above 100 µg/mL; in assay [2], 25 µg/mL (≈ 70.1 µM); in [3], 25 µg/mL (≈ 70.1 µM).

On to `O=[N+]([O-])c1ccc(S)cc1`, for which the MBC in [4], in assay [5], in assay [6], in assay [7], in [8] and in assay [9] was above 100 µg/mL throughout. The minimal bactericidal concentration (MBC) (in general, the lowest tested concentration that kills the bacteria rather than only halting them) in [10] is above 100 µg/mL. Further, the MIC in assay [4] stood at 1.56 µg/mL (≈ 10.1 µM); in assay [5], 3.13 µg/mL (≈ 20.2 µM); in assay [6], 1.56 µg/mL (≈ 10.1 µM); in assay [7] it was 1.56 µg/mL (≈ 10.1 µM); in [8] it was 1.56 µg/mL (≈ 10.1 µM); in assay [9], 1.56 µg/mL (≈ 10.1 µM). This molecule also gave an MIC in assay [10] of 1.56 µg/mL (≈ 10.1 µM).

With `CN[C@H](CC(C)C)C(=O)N[C@H]1C(=O)N[C@@H](CC(N)=O)C(=O)N[C@H]2C(=O)N[C@H]3C(=O)N[C@H](C(=O)N[C@H](C(=O)O)c4cc(O)cc(O)c4-c4cc3ccc4O)[C@H](O)c3ccc(c(Cl)c3)Oc3cc2cc(c3O[C@@H]2O[C@H](CO)[C@@H](O)[C@H](O)[C@H]2O[C@H]2C[C@](C)(N)[C@H](O)[C@H](C)O2)Oc2ccc(cc2Cl)[C@H]1O` [VANCOMYCIN], the minimal bactericidal concentration (MBC) in assay [4] is 1 µg/mL (≈ 0.69 µM); in assay [5], 2 µg/mL (≈ 1.38 µM); in assay [6], 1 µg/mL (≈ 0.69 µM); in [7], 1 µg/mL (≈ 0.69 µM); in assay [8], 1 µg/mL (≈ 0.69 µM); in assay [9], 1 µg/mL (≈ 0.69 µM). In assay [10], this molecule showed an MBC of 1 µg/mL (≈ 0.69 µM). In addition, the MIC was above 100 µg/mL in [1] and 0.5 µg/mL (≈ 0.345 µM) in [3].

For the molecule `O=C1C(=O)N(Sc2ccccc2[N+](=O)[O-])c2c(Br)cccc21`, the values for the MIC in [1], in [2] and in assay [3] were above 100 µg/mL, 12.5 µg/mL (≈ 33 µM) and above 100 µg/mL, respectively.

Take `O=C1C(=O)N(Sc2ccc([N+](=O)[O-])cc2[N+](=O)[O-])c2ccccc21`: the MIC in assay [1], in assay [2] and in assay [3] was above 100 µg/mL in each case.

In the case of `COC(=O)CC[C@H](N)C(=O)OC`, the minimum bactericidal concentration (MBC) in assay [4], in assay [5], in assay [6], in assay [7], in [8] and in assay [9] was above 100 µg/mL throughout. In [10], this molecule gave a minimum bactericidal concentration (MBC) above 100 µg/mL. Also, the minimum inhibitory concentration (MIC) in assay [4], in [5], in [6], in [7], in [8] and in assay [9] was above 100 µg/mL each time. The MIC in [10] is above 100 µg/mL.

Turning to `CCOC(=O)c1ccccc1SN1C(=O)C(=O)c2ccccc21`, the values for the minimum inhibitory concentration (MIC) in assay [1], in assay [2] and in assay [3] were above 100 µg/mL, 12.5 µg/mL (≈ 38.2 µM) and above 100 µg/mL, respectively.

For the molecule `CCOC(=O)[C@@H](N)Cc1c[nH]c2ccccc12`, the MBC in [4], in assay [5], in assay [6], in assay [7], in [8] and in assay [9] was above 100 µg/mL each time. The molecule also registered an MBC in assay [10] above 100 µg/mL. Also, the minimal inhibitory concentration (MIC) in [4], in assay [5], in [6], in assay [7], in assay [8] and in assay [9] was above 100 µg/mL in each case. Besides, the minimal inhibitory concentration (MIC) in assay [10] was above 100 µg/mL.

Take `COC(=O)[C@H](Cc1c[nH]c2ccccc12)NSc1ccc([N+](=O)[O-])cc1`: the minimum inhibitory concentration (MIC) in assay [1] is above 100 µg/mL; in assay [2], above 100 µg/mL; in assay [3], 25 µg/mL (≈ 67.3 µM).

Regarding `COC(=O)c1ccccc1SN1C(=O)C(=O)c2cccc(Cl)c21`, the results for the minimal inhibitory concentration (MIC) in assay [1], in [2] and in [3] were above 100 µg/mL, 12.5 µg/mL (≈ 35.9 µM) and above 100 µg/mL, respectively.

For the molecule `O=C1C(=O)N(Sc2ccccc2)c2ccccc21`, the MIC in assay [1] was above 100 µg/mL; in assay [2] it was 50 µg/mL (≈ 196 µM); in [3], 25 µg/mL (≈ 97.9 µM).

With `CCOC(=O)c1ccccc1SN1C(=O)C(=O)c2cccc(Cl)c21`, the MIC in [1], in assay [2] and in assay [3] was above 100 µg/mL throughout.

For the molecule `O=C1C(=O)N(Sc2ccccc2[N+](=O)[O-])c2c(Br)cc(Br)cc21`, the MIC in assay [1] is above 100 µg/mL; in assay [2], 25 µg/mL (≈ 54.6 µM); in [3] it was above 100 µg/mL.
